# Test results reported in ChEMBL document CHEMBL3785006, “Discovery of 2-Indole-acylsulfonamide Myeloid Cell Leukemia 1 (Mcl-1) Inhibitors Using Fragment-Based Methods” (J Med Chem, 2016).
# Legend:
# [1] = biological target: T1, Induced myeloid leukemia cell differentiation protein Mcl-1 (Homo sapiens, UniProt Q07820)
# Bcl-2-like protein 1 = Bcl-2-like protein 1 (Homo sapiens, UniProt Q07817)
# [2] = biological target: T1, Induced myeloid leukemia cell differentiation protein Mcl-1; remark: listed apart in the source
# [3] = biological target: T1, Induced myeloid leukemia cell differentiation protein Mcl-1; remark: listed apart in the source
# T1 sequence (Q07820 whole entry): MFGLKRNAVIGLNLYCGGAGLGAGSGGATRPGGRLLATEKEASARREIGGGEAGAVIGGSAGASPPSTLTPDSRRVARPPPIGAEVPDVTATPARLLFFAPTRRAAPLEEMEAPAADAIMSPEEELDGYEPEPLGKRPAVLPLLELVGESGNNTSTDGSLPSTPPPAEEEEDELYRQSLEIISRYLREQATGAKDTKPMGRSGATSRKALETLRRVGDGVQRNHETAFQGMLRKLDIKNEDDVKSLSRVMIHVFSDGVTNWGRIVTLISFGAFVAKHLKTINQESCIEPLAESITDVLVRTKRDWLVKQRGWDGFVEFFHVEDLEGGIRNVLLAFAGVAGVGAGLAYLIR
# Chain of Bcl-2-like protein 1 (Q07817 whole entry): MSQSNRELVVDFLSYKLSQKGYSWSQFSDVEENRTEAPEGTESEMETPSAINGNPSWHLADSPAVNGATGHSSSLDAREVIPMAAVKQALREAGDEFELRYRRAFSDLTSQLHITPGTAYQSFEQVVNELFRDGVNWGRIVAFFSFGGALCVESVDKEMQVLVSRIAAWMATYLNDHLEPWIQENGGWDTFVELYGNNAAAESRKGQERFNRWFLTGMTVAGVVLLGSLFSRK
compound,measurement,setting,value
Cc1cc(OCCCc2c(C(=O)NS(=O)(=O)CCNC(=O)[C@@H]3Cc4ccccc4N3)[nH]c3cc(Cl)ccc23)cc(C)c1Cl,Ki,[1],0.046 µM
CC(=O)NCCS(=O)(=O)NC(=O)c1[nH]c2cc(Cl)ccc2c1CCCOc1cc(C)c(Cl)c(C)c1,Ki,[1],0.209 µM
Cc1cc(OCCCc2c(C(=O)NS(=O)(=O)CCNC(=O)CC(C)C)[nH]c3cc(Cl)ccc23)cc(C)c1Cl,Ki,[1],0.01 µM
Cc1cc(OCCCc2c(C(=O)NS(=O)(=O)c3ccco3)[nH]c3cc(Cl)ccc23)cc(C)c1Cl,Ki,[1],0.116 µM
Cc1cc(OCCCc2c(C(=O)NS(=O)(=O)CCNC(=O)c3ccccc3C(F)(F)F)[nH]c3cc(Cl)ccc23)cc(C)c1Cl,Ki,[1],0.018 µM
Cc1cc(OCCCc2c(C(=O)NS(=O)(=O)c3cccc(CNC(=O)c4ccoc4)c3)[nH]c3c(-c4c(C)nn(C)c4C)c(Cl)ccc23)cc(C)c1Cl,Ki,Bcl-2-like protein 1,1.4 µM
same,Ki,[1],< 0.01 µM
same,Ki,[2],0.0029 µM
same,Ki,[3],0.069 µM
Cc1cc(OCCCc2c(C(=O)NS(C)(=O)=O)[nH]c3ccccc23)cc(C)c1Cl,Ki,[1],0.655 µM
Cc1cc(OCCCc2c(C(=O)NS(=O)(=O)c3cccc(CNC(=O)c4cccc(C(F)(F)F)c4)c3)[nH]c3c(-c4c(C)nn(C)c4C)c(Cl)ccc23)cc(C)c1Cl,Ki,Bcl-2-like protein 1,12.9 µM
same,Ki,[1],< 0.01 µM
same,Ki,[2],0.007 µM
same,Ki,[3],0.078 µM
Cc1cc(OCCCc2c(C(=O)NS(=O)(=O)CCNC(=O)[C@H]3Cc4ccccc4N3)[nH]c3cc(Cl)ccc23)cc(C)c1Cl,Ki,[1],0.028 µM
Cc1cc(OCCCc2c(C(=O)NS(=O)(=O)CCNC(=O)c3ccc[nH]3)[nH]c3cc(Cl)ccc23)cc(C)c1Cl,Ki,[1],0.782 µM
Cc1cc(OCCCc2c(C(=O)NS(=O)(=O)CCNC(=O)C(C)C)[nH]c3cc(Cl)ccc23)cc(C)c1Cl,Ki,[1],0.066 µM
Cc1cc(OCCCc2c(C(=O)NS(=O)(=O)CCNC(=O)C3CCCCC3)[nH]c3cc(Cl)ccc23)cc(C)c1Cl,Ki,[1],0.055 µM
O=C(NS(=O)(=O)CCNC(=O)C1CCCCC1)c1[nH]c2cc(Cl)ccc2c1CCCOc1cccc2ccccc12,Ki,[1],0.374 µM
Cc1cc(OCCCc2c(C(=O)NS(=O)(=O)c3cccc(CNC(=O)CC(C)C)c3)[nH]c3c(-c4c(C)nn(C)c4C)c(Cl)ccc23)cc(C)c1Cl,Ki,Bcl-2-like protein 1,1.57 µM
same,Ki,[1],< 0.01 µM
same,Ki,[2],0.0056 µM
same,Ki,[3],0.092 µM
Cc1cc(OCCCc2c(C(=O)NS(=O)(=O)CCNC(=O)c3ccccc3)[nH]c3ccccc23)cc(C)c1Cl,Ki,[1],0.43 µM
Cc1cc(OCCCc2c(C(=O)NS(=O)(=O)CCNC(=O)c3ccc(C(F)(F)F)cc3)[nH]c3cc(Cl)ccc23)cc(C)c1Cl,Ki,[1],0.119 µM
Cc1cc(OCCCc2c(C(=O)NS(=O)(=O)c3ccc(C(=O)NCc4ccccc4)o3)[nH]c3c(-c4c(C)nn(C)c4C)c(Cl)ccc23)cc(C)c1Cl,Ki,Bcl-2-like protein 1,> 50 µM
same,Ki,[1],< 0.01 µM
same,Ki,[2],0.0024 µM
same,Ki,[3],0.084 µM
Cc1cc(OCCCc2c(C(=O)NS(=O)(=O)CCNC(=O)[C@@H]3Cc4ccccc4N3)[nH]c3ccccc23)cc(C)c1Cl,Ki,[1],0.193 µM
Cc1cc(OCCCc2c(C(=O)NS(=O)(=O)c3ccccc3)[nH]c3c(-c4c(C)nn(C)c4C)c(Cl)ccc23)cc(C)c1Cl,Ki,[1],< 0.01 µM
same,Ki,[2],0.017 µM
same,Ki,[3],0.064 µM
Cc1cc(OCCCc2c(C(=O)NS(=O)(=O)CCNS(=O)(=O)C3CCCCC3)[nH]c3ccccc23)cc(C)c1Cl,Ki,[1],0.251 µM
Cc1cc(OCCCc2c(C(=O)NS(=O)(=O)c3ccccc3)[nH]c3c(-c4cccnc4C)cccc23)cc(C)c1Cl,Ki,[1],0.014 µM
Cc1cc(OCCCc2c(C(=O)NS(=O)(=O)c3ccccc3)[nH]c3c(-c4c(C)n[nH]c4C)c(Cl)ccc23)cc(C)c1Cl,Ki,[1],< 0.01 µM
same,Ki,[3],0.147 µM
CC(=O)NCc1cccc(S(=O)(=O)NC(=O)c2[nH]c3c(-c4c(C)nn(C)c4C)c(Cl)ccc3c2CCCOc2cc(C)c(Cl)c(C)c2)c1,Ki,Bcl-2-like protein 1,9.07 µM
same,Ki,[1],< 0.01 µM
same,Ki,[2],0.0111 µM
same,Ki,[3],0.042 µM
Cc1cc(OCCCc2c(C(=O)NS(=O)(=O)c3cccc(CNC(=O)c4ccccc4C(F)(F)F)c3)[nH]c3c(-c4c(C)nn(C)c4C)c(Cl)ccc23)cc(C)c1Cl,Ki,Bcl-2-like protein 1,4.47 µM
same,Ki,[1],< 0.01 µM
same,Ki,[2],0.005 µM
same,Ki,[3],0.08 µM
Cc1cc(OCCCc2c(C(=O)NS(=O)(=O)c3cccc(CNC(=O)c4cccn4C)c3)[nH]c3c(-c4c(C)nn(C)c4C)c(Cl)ccc23)cc(C)c1Cl,Ki,Bcl-2-like protein 1,> 50 µM
same,Ki,[1],< 0.01 µM
same,Ki,[2],0.01 µM
same,Ki,[3],0.091 µM
Cc1cc(OCCCc2c(C(=O)NS(=O)(=O)CCNC(=O)CC3CCCCC3)[nH]c3ccccc23)cc(C)c1Cl,Ki,[1],1.1 µM
Cc1cc(OCCCc2c(C(=O)NS(=O)(=O)c3ccnc(NC4Cc5ccccc5C4)c3)[nH]c3c(-c4c(C)nn(C)c4C)c(Cl)ccc23)cc(C)c1Cl,Ki,Bcl-2-like protein 1,0.997 µM
same,Ki,[1],< 0.01 µM
same,Ki,[2],0.001 µM
same,Ki,[3],0.061 µM
Cc1ccncc1-c1cccc2c(CCCOc3cc(C)c(Cl)c(C)c3)c(C(=O)NS(=O)(=O)c3ccccc3)[nH]c12,Ki,[1],0.036 µM
Cc1cc(OCCCc2c(C(=O)NS(C)(=O)=O)[nH]c3cc(Cl)ccc23)cc(C)c1Cl,Ki,[1],0.209 µM
Cc1cc(OCCCc2c(C(=O)NS(=O)(=O)CCNC(=O)c3cccn3C)[nH]c3ccccc23)cc(C)c1Cl,Ki,[1],0.09 µM
Cc1cc(OCCCc2c(C(=O)NS(=O)(=O)c3ccccc3)[nH]c3c(-c4cccnc4C)c(Cl)ccc23)cc(C)c1Cl,Ki,[1],< 0.01 µM
same,Ki,[2],0.018 µM
same,Ki,[3],0.146 µM
Cc1cc(OCCCc2c(C(=O)NS(=O)(=O)CCNC(=O)c3cc(-c4ccccc4O)n[nH]3)[nH]c3cc(Cl)ccc23)cc(C)c1Cl,Ki,[1],0.308 µM
Cc1cc(OCCCc2c(C(=O)NS(=O)(=O)CCNC(=O)c3cc4ccccc4o3)[nH]c3ccccc23)cc(C)c1Cl,Ki,[1],0.311 µM
Cc1cc(OCCCc2c(C(=O)NS(=O)(=O)CCNC(=O)C(F)(F)F)[nH]c3cc(Cl)ccc23)cc(C)c1Cl,Ki,[1],0.116 µM
Cc1cc(OCCCc2c(C(=O)NS(=O)(=O)CCNC(=O)C3CCCCC3)[nH]c3ccccc23)cc(C)c1Cl,Ki,[1],0.118 µM
Cc1cc(OCCCc2c(C(=O)NS(=O)(=O)CCNC(=O)c3ccc(F)cc3)[nH]c3ccccc23)cc(C)c1Cl,Ki,[1],0.117 µM
Cc1cc(OCCCc2c(C(=O)NS(=O)(=O)c3ccnc(N(C)CCc4ccccc4)c3)[nH]c3c(-c4c(C)nn(C)c4C)c(Cl)ccc23)cc(C)c1Cl,Ki,Bcl-2-like protein 1,0.943 µM
same,Ki,[1],< 0.01 µM
same,Ki,[2],0.0025 µM
same,Ki,[3],0.226 µM
Cc1cc(OCCCc2c(C(=O)NS(=O)(=O)CCNC(=O)c3ccc4cc[nH]c4c3)[nH]c3ccccc23)cc(C)c1Cl,Ki,[1],0.278 µM
Cc1cc(OCCCc2c(C(=O)NS(=O)(=O)CCNC(=O)c3cccn3-c3ccccc3)[nH]c3ccccc23)cc(C)c1Cl,Ki,[1],0.139 µM
Cc1cc(OCCCc2c(C(=O)NS(=O)(=O)c3ccnc(NCCC(C)C)c3)[nH]c3c(-c4c(C)nn(C)c4C)c(Cl)ccc23)cc(C)c1Cl,Ki,Bcl-2-like protein 1,4.47 µM
same,Ki,[1],< 0.01 µM
same,Ki,[2],0.0056 µM
same,Ki,[3],0.179 µM
Cc1cc(OCCCc2c(C(=O)NS(=O)(=O)CCNC(=O)c3cccc(C(F)(F)F)c3)[nH]c3cc(Cl)ccc23)cc(C)c1Cl,Ki,[1],0.079 µM
CC(=O)NCCS(=O)(=O)NC(=O)c1[nH]c2ccccc2c1CCCOc1cc(C)c(Cl)c(C)c1,Ki,[1],0.656 µM
Cc1cc(OCCCc2c(C(=O)NS(=O)(=O)CCNC(=O)c3ccco3)[nH]c3cc(Cl)ccc23)cc(C)c1Cl,Ki,[1],0.053 µM
Cc1cc(OCCCc2c(C(=O)NS(=O)(=O)CCOc3ccccc3)[nH]c3ccccc23)cc(C)c1Cl,Ki,[1],0.322 µM
CS(=O)(=O)NC(=O)c1[nH]c2cc(Cl)ccc2c1CCCOc1cccc2ccccc12,Ki,[1],0.231 µM
Cc1cc(OCCCc2c(C(=O)NS(=O)(=O)CCNC(=O)c3cccc(F)c3)[nH]c3ccccc23)cc(C)c1Cl,Ki,[1],0.1 µM
Cc1cc(OCCCc2c(C(=O)NS(=O)(=O)CCNC(=O)c3ccccc3F)[nH]c3ccccc23)cc(C)c1Cl,Ki,[1],0.336 µM
Cc1cc(OCCCc2c(C(=O)NS(=O)(=O)c3ccnc(NCCc4ccccc4)c3)[nH]c3c(-c4c(C)nn(C)c4C)c(Cl)ccc23)cc(C)c1Cl,Ki,Bcl-2-like protein 1,1.11 µM
same,Ki,[1],< 0.01 µM
same,Ki,[2],0.0012 µM
same,Ki,[3],0.078 µM
CCC(=O)NCCS(=O)(=O)NC(=O)c1[nH]c2cc(Cl)ccc2c1CCCOc1cc(C)c(Cl)c(C)c1,Ki,[1],0.087 µM
CCC(CC)C(=O)NCCS(=O)(=O)NC(=O)c1[nH]c2cc(Cl)ccc2c1CCCOc1cc(C)c(Cl)c(C)c1,Ki,[1],0.016 µM
Cc1cc(OCCCc2c(C(=O)NS(=O)(=O)c3ccc(C(=O)O)o3)[nH]c3c(-c4c(C)nn(C)c4C)c(Cl)ccc23)cc(C)c1Cl,IC50,[2],0.0021 µM
same,Ki,[2],0.00078 µM
Cc1cc(OCCCc2c(C(=O)NS(=O)(=O)CCNC(=O)Cc3cn(C)c4ccccc34)[nH]c3ccccc23)cc(C)c1Cl,Ki,[1],0.298 µM
Cc1cc(OCCCc2c(C(=O)NS(=O)(=O)CCNC(=O)c3ccc4[nH]ccc4c3)[nH]c3ccccc23)cc(C)c1Cl,Ki,[1],0.269 µM
Cc1cc(OCCCc2c(C(=O)NS(=O)(=O)c3ccccc3)[nH]c3c(-c4cccnc4)cccc23)cc(C)c1Cl,Ki,[1],0.202 µM
Cc1cc(OCCCc2c(C(=O)NS(=O)(=O)CCNC(=O)c3cccn3Cc3ccccc3)[nH]c3ccccc23)cc(C)c1Cl,Ki,[1],0.148 µM
Cc1cc(OCCCc2c(C(=O)NS(=O)(=O)c3ccncc3)[nH]c3ccccc23)cc(C)c1Cl,Ki,[1],0.335 µM
Cc1cc(OCCCc2c(C(=O)NS(=O)(=O)c3ccc(C(=O)NCc4ccncc4)o3)[nH]c3c(-c4c(C)nn(C)c4C)c(Cl)ccc23)cc(C)c1Cl,Ki,Bcl-2-like protein 1,> 50 µM
same,Ki,[1],< 0.01 µM
same,Ki,[2],0.0085 µM
same,Ki,[3],0.02 µM
Cc1cc(OCCCc2c(C(=O)NS(=O)(=O)CCNC(=O)c3ccoc3)[nH]c3cc(Cl)ccc23)cc(C)c1Cl,Ki,[1],0.019 µM
Cc1cc(OCCCc2c(C(=O)NS(=O)(=O)c3ccccc3)[nH]c3cc(Cl)ccc23)cc(C)c1Cl,Ki,[1],0.091 µM
Cc1cc(OCCCc2c(C(=O)NS(=O)(=O)CCCNC3CCCCC3)[nH]c3ccccc23)cc(C)c1Cl,Ki,[1],1.02 µM
Cc1cc(OCCCc2c(C(=O)NS(=O)(=O)c3ccccc3)[nH]c3c(-c4c(C)n[nH]c4C)cccc23)cc(C)c1Cl,Ki,[1],< 0.01 µM
same,Ki,[3],0.517 µM
Cc1cc(OCCCc2c(C(=O)NS(=O)(=O)c3cccc(CNC(=O)C(C)C)c3)[nH]c3c(-c4c(C)nn(C)c4C)c(Cl)ccc23)cc(C)c1Cl,Ki,Bcl-2-like protein 1,> 50 µM
same,Ki,[1],< 0.01 µM
same,Ki,[2],0.016 µM
same,Ki,[3],0.054 µM
Cc1cc(OCCCc2c(C(=O)NS(=O)(=O)CCNC(=O)c3cn(C)c4ccccc34)[nH]c3ccccc23)cc(C)c1Cl,Ki,[1],0.432 µM
